Values joined by “and” are separate entries in the source; they are usually repeats but may differ in a detail not shown here. Identical values can stand only once.
What follows are compounds tested on P. falciparum 3D7 growth, pLDH absorbance (assay: P. falciparum 3D7 growth inhibition, dose response, strain 3D7 (AID 2305)).

SMILES	IC50
CSc1ccc(C=CC(=O)NC(=O)c2ccccc2O)cc1	290 nM
O=C(Nc1cccc(CN2CCCN(Cc3ccc(O)cc3)CC2)c1)c1ccc(Cl)c(Cl)c1	260 nM
Cc1[nH]c(C)c(-c2ccc(Oc3ccc(Cl)cc3Cl)cc2)c(=O)c1Br	300 nM
CS(=O)(=O)CCNc1cc(N2CCc3ncnc(Nc4ccc(OCc5cccc(F)c5)c(Cl)c4)c3C2)ncn1	870 nM
CC(Cc1ccc([N+](=O)[O-])cc1)NCC(O)c1cccc(C(F)(F)F)c1 (configuration not stated)	900 nM
CCNc1cc(C(=O)N[C@@H](Cc2ccccc2)[C@H](O)CNC2(CC(C)C)CC2)cc(N2CCCCS2(=O)=O)c1	1020 nM
NCCCNc1ccnc2cc(Cl)ccc12	300 nM
CCCCOc1cc(CNCCCCCCNCc2cc(OCCCC)cc3ccccc23)c2ccccc2c1	740 nM
CCc1cn(C)c2c(N3CCCC3=O)cc(C(=O)N[C@@H](Cc3ccccc3)[C@H](O)CNCc3cccc(OC)c3)cc12	780 nM
COc1ccc(-c2cc(-c3nc4ccc(C(=O)N5CCOCC5)cc4[nH]3)c(=O)n(C)c2)cc1OC	860 nM
Cn1ccc(-c2cccc(Nc3ccnc4cc(-c5nccs5)ccc34)c2)n1	410 nM
OC(CNCc1ccccc1OCc1ccccc1)c1cc(C(F)(F)F)cc(C(F)(F)F)c1 (configuration not stated)	130 nM
COc1cc2c(c(Cl)c1OC)CCN(Cc1ccccc1)CC2c1ccc(C(N)=O)cc1 (configuration not stated)	850 nM
Cc1nc(-c2ccc(-c3ccc(C(=O)Nc4ccc(C(C)C)c(OCCN(C)C)c4)cc3)c(C)c2)no1	870 nM
CC(C)c1cccc(C(NC(=O)[C@H]2Cc3ccccc3CN2C(=O)c2cccc(N3CCOCC3)c2)C2CCCC2)c1 (some centres not stated)	720 nM
O=C(c1ccc(-c2cccc(-c3nc4ccc(F)cc4[nH]3)c2)cc1)N1CCCCC1CN1CCC(O)C1 (configuration not stated)	1400 nM
COc1ccc(NC(=O)Nc2cccc(-c3cccc(-c4nc5ccc(F)cc5[nH]4)c3)c2)cc1	170 nM
COc1cccc(C2=CC(C)(C)Oc3cc(OCCN(C)C)ccc32)c1	790 nM
Cc1cccc(CN2CCN(c3ncc(C(=O)NC4CC4)cc3Cl)CC2)c1	1310 nM
COCCN1CCC(N(CC2(O)CCN(c3ccc(C(F)(F)F)cc3)CC2)C(=O)Cn2c(SCc3cccc(F)c3F)cc(=O)c3ccccc32)CC1	810 nM
CC(C)Cn1c(Sc2ccc(C#N)c([N+](=O)[O-])c2)nnc1-c1ccc(N(C)C)cc1	220 nM
Cc1ccc(/C=C/C(=O)NC2CCC(CN3CCC(c4c[nH]c5ccccc45)CC3)CC2)cc1C (configuration not stated)	820 nM and 830 nM
CCOC(=O)c1c(C)noc1Nc1cccc(C)c1C	420 nM
CCN(CC(C)O)C(=O)c1ccc(-c2cccc(-c3nc4c(C)cccc4[nH]3)c2)cc1 (configuration not stated)	640 nM
O=C(Nc1ccc(Cl)c(C(F)(F)F)c1)NC1CCN(CCCCCNC(=O)[C@@H]2C[C@H]2c2ccc(Cl)c(Cl)c2)CC1	680 nM

SMILES	IC50
COc1cccc(C2CCN(CCCCNC(=O)c3ccc(NC(=O)c4ccc(Cl)cc4)cc3)CC2)c1	960 nM
CC1(C)N=C(N)N=C(N)N1OCCSCCON1C(N)=NC(N)=NC1(C)C	50 nM
CCN(CCNC(=O)Cn1c(C)cc2cc([N+](=O)[O-])ccc21)c1cccc(C)c1	1010 nM
COc1cc2nc(NCC3CCN(C(=O)c4ccc(-c5ccc(C(=O)N(C)C)cc5C)cc4)CC3)nc(N)c2cc1OC	950 nM
Cc1ccccc1C1CCN(C2CCC(NC(=O)c3ccc(-c4ccccn4)s3)CC2)CC1 (configuration not stated)	1180 nM
CCOc1cc(Br)c(C(C)NC(=O)c2cccc(OC)c2)cc1OCC (configuration not stated)	170 nM
Fc1ccc2nc(-c3ccc(-c4ccc(CN5CCCCC5)cc4)s3)[nH]c2c1	600 nM
CCn1c(-c2nonc2N)nc2c(-c3cccc(NC(=O)Nc4cccc(C#N)c4)c3)ncc(OCCCN)c21	670 nM
COc1ccc(C(O)CNC(C)CCc2ccc(F)cc2)cc1C(F)(F)F (configuration not stated)	750 nM
Cc1cc(Nc2ccnc(-c3ccc(Cl)cc3)n2)ccn1	1040 nM
COc1ccc(-c2cccc(NC(=O)c3cccc(Cl)c3)c2)cc1CNC(C)C	720 nM
COc1ccc2c(NN=Cc3cccc(F)c3)ccnc2c1	210 nM
CC(Oc1ccc(Cl)cc1)C(=O)Nc1cc(C(F)(F)F)ccc1-n1cncn1 (configuration not stated)	150 nM
COc1ccc(NC(=O)Nc2cccc(-c3cccc(-c4nc5ccccc5[nH]4)c3)c2)cc1	310 nM
CC1(C)N=C(N)N=C(N)N1c1ccc(Oc2ccccc2)cc1	340 nM
COC(=O)C(Cc1ccccc1)NC(=O)NC1CCN(c2ccnc(Nc3ccc(F)cc3)n2)C1 (configuration not stated)	1090 nM
COc1cccc(C2=CC(c3ccccc3)n3ncc(C(=O)Nc4ccc(Cl)cc4)c3N2)c1 (configuration not stated)	1060 nM
COc1ccc(O)c(C(=O)c2cnc3c(c2)c(-c2ccc(F)cc2)c(C#N)c(=O)n3C)c1	790 nM
COc1ccccc1CCNc1nc(C)cc(NCCC(=O)Nc2ccccc2)n1	810 nM
CC(C)(C)c1ccc(C(=O)Nc2ccc3nc4c(c(N)c3c2)CCCC4)cc1	170 nM
CN1CCN(CCCN(Cc2cccc(-c3cccc(CNC4CCCC4)c3)c2)C(=O)/C=C/c2ccccc2)CC1	780 nM
COc1ccc(C=Cc2cc(N)c3ccccc3n2)cc1	970 nM
Cc1cccc(C)c1C1CCN(CCCCNC(=O)c2cc3ccccc3[nH]2)CC1	890 nM
O=C(c1cc(C(=O)Nc2ccc(F)cc2)c(=O)n(-c2ccc(F)cc2)c1)c1cc(Cl)ccc1O	220 nM
Cc1cc(=O)c(-c2ccc(Oc3cccc(OC(F)(F)F)c3)cc2)c(C)[nH]1	200 nM

SMILES	IC50
COc1ccc2nccc([C@@H](O)CN3CCC(NCc4cc5cccc(O)c5[nH]4)CC3)c2c1	840 nM
Cc1[nH]c2ccc(-c3ccccc3)cc2c(=O)c1Br	160 nM
Cc1cccc2c3c([nH]c12)C1(CCN(CCc2ccccc2)CC1)NC(C(=O)NCc1ccccc1)C3 (configuration not stated)	1000 nM
Oc1ccc(CCNc2nc(NCc3ccccc3Oc3ccc(C(F)(F)F)cc3)nc(N3CCNCC3)n2)cc1	1160 nM
Cc1cc(NC(=O)c2cccs2)ccc1OC1CCN(Cc2ccc(C#N)cc2)CC1	720 nM
CN1CCC[C@H]1COc1ccc(CN2CC[C@H](NC(=O)c3ccc(Cl)c(Cl)c3)C2)cc1Br	980 nM
O=C(Nc1cccc(-c2nc3ccccc3s2)c1)c1ccccc1[N+](=O)[O-]	770 nM
FC(F)(F)c1ccc2nc(-c3ccc(-c4ccc(CNCCN5CCNCC5)cc4)cc3)[nH]c2c1	1120 nM
COc1ccc2c(NN=Cc3cccc([N+](=O)[O-])c3)cc(C)nc2c1	560 nM
Cc1cccc2[nH]c(-c3cccc(-c4ccc(C(=O)NCc5ccccc5S(C)(=O)=O)cc4)c3)nc12	750 nM
COc1ccc(NC(=O)c2c(NC(=O)c3cccs3)sc3c2CCCC3)cc1	450 nM
COC(=O)c1ccc(C(=O)NCCCCN2CCC(c3ccc4c(c3OC)CCCC4)CC2)cc1-c1ccc(C(F)(F)F)cc1	1150 nM
CCc1c(C)nc(-n2nc(C)cc2NC(=O)CC(c2ccccc2)c2ccccc2)[nH]c1=O	650 nM
Cc1cc(C)c(NC(=O)N2CCCN(CCCCCNC(=O)/C=C/c3ccc(Cl)c(Cl)c3)CC2)c(C)c1	970 nM
c1ccc(COc2ccc(C3CCCCC3)cc2)nc1	770 nM
COc1ccc(-c2cccc(NC(=O)c3ccc(C#N)cc3)c2)cc1CN1CCCN(C)CC1	760 nM
O=C(Nc1ccc(N2CCN(Cc3c[nH]c4cc(F)ccc34)CC2)cc1)c1ccccc1-c1ccc(C(F)(F)F)cc1	990 nM
CN1CCN(CCc2ccc3nc(-c4csc(Cc5cc(Cl)ccc5OCc5ccccc5)n4)[nH]c3c2)CC1	750 nM
O=C(Nc1ccc(C(F)(F)F)cc1)NC1CCN(c2ccnc3ccccc23)CC1	180 nM
CC(C)c1ccc(CN2CCC(NC(=O)c3ccc(-c4ccccc4F)s3)CC2)cc1	1550 nM
CCc1cccc(NC(=O)/C=C/c2ccc3c(c2)CN(C)CC3)c1	770 nM
Cc1nn(-c2ccccc2)nc1C(=O)NC1CCN(CCNC(=O)c2ccc(Cl)c(Cl)c2)CC1	870 nM
COc1cc(F)c2ncc(Cl)c(CCN3CCC(NCc4ccc5c(c4)NC(=O)CO5)CC3)c2c1	230 nM
COc1ccccc1Nc1nc(NC2CCN(C)CC2)cc(-c2cccc(C(F)(F)F)c2)n1	920 nM
O=C(/C=C/c1ccc(Cl)c(Cl)c1)NCCCCCN1CCCN(C(=O)Nc2cc(Cl)cc(Cl)c2)CC1	790 nM

SMILES	IC50
CCCCCN1CCC(CNS(=O)(=O)c2ccc(C(=O)Nc3cccc(C(F)(F)F)c3)cc2)CC1	750 nM
COc1ccc2nccc([C@@H](O)CN3CCC(NCCOc4cccc(C(F)(F)F)c4Cl)CC3)c2c1	150 nM
CS(=O)(=O)CCNCc1nc(-c2ccc3c(Nc4ccc(F)c(O)c4)ccnc3c2)cs1	820 nM
Cc1cccc2[nH]c(-c3cccc(-c4cccc(CNCCNC(=O)c5ccnn5C)c4)c3)nc12	190 nM
Cc1ccc(NC(=O)c2ccc(Cl)c(Cl)c2)cc1-c1ccc(C(=O)Nc2ccncc2)cc1	570 nM
CC1CCCCN1Cc1cccc(-c2c[nH]c3nc(NC4CCCC4)ncc23)c1 (configuration not stated)	1310 nM
COc1ccc2ncc(F)c([C@@H](O)CN3CCC(NCc4ccc5c(c4)NCCS5)CC3)c2n1	500 nM
CS(=O)(=O)Nc1ccc(OCCCCCCOc2ccc(NS(C)(=O)=O)cc2)cc1	490 nM
CC(C)(C)c1ccccc1SC1=C(O)CC2(CCNCC2)OC1=O	880 nM
O=C(Nc1cccc(CN2CCCN(CCc3ccccc3)CC2)c1)c1ccc(Cl)c(Cl)c1	950 nM
CCCC(C)c1cnc2nc(N)nc(N)c2c1C (configuration not stated)	30 nM
COc1cc2nc(N3CC(C)N(C(=O)Cc4ccc(-c5ccccc5)cc4)C(C)C3)nc(N)c2cc1OC (configuration not stated)	800 nM
CC(Cc1ccc(OCCN2CCN(c3ccccc3)CC2)cc1)NCC(O)c1cccc(Cl)c1F (configuration not stated)	870 nM
N#Cc1ccc(C=CC(=O)NC2CCC(CCN3CCc4ccc(-c5cnccn5)cc4CC3)CC2)cc1 (configuration not stated)	610 nM
CC[C@H]1CN2CC[C@H]1C[C@H]2[C@H](O)c1ccnc2ccc(O)cc12	640 nM
CN(CCCNC(=S)NC12CC3CC(CC(C3)C1)C2)CCCNc1ccnc2cc(Cl)ccc12	120 nM
CC(C)(CN)c1nc(-c2ccc(Cl)c(O)c2)c(-c2ccnc(N)n2)[nH]1	980 nM
COc1ccc(CNc2nccc3ccc(-c4ccc(N)nc4)cc23)cc1	980 nM
O=C(c1cc2cccc([N+](=O)[O-])c2[nH]1)N1CCC(CCN2CCC(c3c[nH]c4ccccc34)CC2)CC1	940 nM
CC(C)Cc1csc(NC(=O)C=Cc2ccco2)c1C(=O)O	300 nM
NC(=O)c1ccccc1OCC(=O)Nc1cccc(-c2ccc(-c3nc4ccc(C(F)(F)F)cc4[nH]3)cc2)c1	650 nM
CCn1c(-c2nonc2N)nc2c(-c3cccc(NC(=O)Nc4cccc(OC)c4)c3)ncc(OCCCN)c21	770 nM
